For assay [1], the target named is T1, GST-LXRβ ligand-binding domain (Homo sapiens, UniProt P55055).
T1 construct: amino acids 156-461; NP009052; made in house; host or cells: E. coli
T1 sequence (P55055 156-460 limits assumed): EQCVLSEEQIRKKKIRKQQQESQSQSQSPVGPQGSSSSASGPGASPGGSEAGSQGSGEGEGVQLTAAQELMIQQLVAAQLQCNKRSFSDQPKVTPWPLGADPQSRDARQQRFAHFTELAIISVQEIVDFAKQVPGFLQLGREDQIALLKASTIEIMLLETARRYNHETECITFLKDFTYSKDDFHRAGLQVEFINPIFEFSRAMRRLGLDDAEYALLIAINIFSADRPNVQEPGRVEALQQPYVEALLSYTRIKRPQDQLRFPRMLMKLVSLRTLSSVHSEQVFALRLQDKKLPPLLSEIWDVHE
Briefly: TR-FRETβ activity assay (NCoA3 coactivator peptide recruitment). The class given is biochemical. Particulars: 1 μM 24(S)-25-epoxycholesterol prestimulation. The gist of the method: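 E. coli-expressed GST-LXRβ LBD (aa 156-461, 76 nM) with biotinylated NCoA3 peptide (400 nM) in Tris/HCl pH 6.8 containing 1 μM 24(S)-25-epoxycholesterol agonist. Compounds tested at 50 μM down to 0.002 μM in triplicate. TR-FRET (Tb cryptate/XL665, ex 340, em 615/665 nm) read after 1 h at 4° C.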

The target in the next assay is T2, LXRβ (Homo sapiens, UniProt P55055).
T2 sequence (P55055 1-460): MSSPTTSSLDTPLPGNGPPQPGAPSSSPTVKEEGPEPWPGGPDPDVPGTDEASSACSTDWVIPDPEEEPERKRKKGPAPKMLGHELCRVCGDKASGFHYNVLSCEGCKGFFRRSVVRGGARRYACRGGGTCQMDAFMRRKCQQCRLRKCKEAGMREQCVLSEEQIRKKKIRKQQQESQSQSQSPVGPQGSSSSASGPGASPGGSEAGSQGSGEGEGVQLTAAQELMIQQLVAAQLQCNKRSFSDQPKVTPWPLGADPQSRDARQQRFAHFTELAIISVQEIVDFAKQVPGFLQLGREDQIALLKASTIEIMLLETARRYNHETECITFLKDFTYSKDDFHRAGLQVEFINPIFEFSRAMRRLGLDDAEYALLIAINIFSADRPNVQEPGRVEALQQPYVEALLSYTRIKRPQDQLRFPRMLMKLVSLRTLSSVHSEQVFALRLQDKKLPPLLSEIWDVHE
As to the kind of experiment: LXR Gal4 reporter transient transfection assay (mammalian two-hybrid, HEK293), LXRβ. Format: cell-based. Also noted: LXRβ (amino acids 156-461); expressed in transfected cells; host or cells: HEK293. Particulars: full length (FL) LXRβ, HEK293; read-out: FL-M2H Gal4β. The gist of the method:
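HEK293 cells transiently co-transfected with full-length or LBD LXRα/LXRβ fused to NFkB activation domain, GAL4-DBD-fused SRC1 or NCoR cofactor domain, GAL4-responsive firefly luciferase reporter and Renilla control. Compound added 4 h post-transfection (≤0.2% DMSO), incubated 16 h; firefly and Renilla luminescence read sequentially.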

We go through 33 compounds from patent publication US20260083704A1, “LXR MODULATORS WITH BICYCLIC CORE MOIETY FOR TREATING DYSLIPIDEMIAS” (OrsoBio, Inc., priority 2022, published 2026).

Take `N#Cc1sccc1-c1c(-c2cccc(-c3ccc(C(=O)O)cc3Cl)c2)n(S(=O)(=O)c2ccc(F)cc2)c2ccc(F)cc12` [11/18]: the figures for the EC50 (in assay [1]; on LXRβ) were 100 to 1000 nM and below 100 nM, respectively.
For the compound `Cc1ccc(S(=O)(=O)n2c(-c3cccc(-c4ccc(C(=O)O)cc4Cl)c3)c(-c3ccsc3C#N)c3cc(F)ccc32)cc1F` [11/19], the EC50 in assay [1] is 100 to 1000 nM; on LXRβ, below 100 nM.
The matching figures for `N#Cc1ccc(S(=O)(=O)n2c(-c3cccc(-c4ccc(C(=O)O)cc4Cl)c3)c(-c3ccsc3C#N)c3cc(F)ccc32)cc1` [11/20]: 100 to 1000 nM and below 100 nM.
`O=C(O)c1ccc(-c2cccc(-c3c(-c4ccsc4C(F)F)c4cc(F)ccc4n3S(=O)(=O)c3ccc(Cl)cc3)c2)c(Cl)c1` [11/21]: the EC50 (in assay [1]; at LXRβ) was below 100 nM throughout.
As to `O=C(O)c1ccc(-c2cccc(-c3c(-c4ccsc4C(F)(F)F)c4cc(F)ccc4n3S(=O)(=O)c3ccc(C(F)F)cc3)c2)c(Cl)c1` [11/22], the EC50 (in assay [1]; at LXRβ) was below 100 nM each time.
As to `Cc1n[nH]c(C)c1-c1c(-c2cccc(-c3ccc(C(=O)O)cc3Cl)c2)n(S(=O)(=O)c2ccc(C(F)F)cc2)c2ccc(F)cc12` [11/24], the EC50 (in assay [1]; at LXRβ) was 100 to 1000 nM each time.
Take `O=C(O)c1ccc(-c2cccc(-c3c(-c4cn[nH]c4C(F)(F)F)c4cc(F)ccc4n3S(=O)(=O)c3ccc(C(F)F)cc3)c2)c(Cl)c1` [11/25]: the EC50 in assay [1] is 100 to 1000 nM; on LXRβ, below 100 nM.
Regarding `N#Cc1ccccc1-c1c(-c2cccc(-c3ccc(C(=O)O)c4c3OCO4)c2)n(S(=O)(=O)c2ccc(C(F)F)cc2)c2ccc(F)cc12` [11/28], the EC50 (in assay [1]; at LXRβ) was below 100 nM throughout.
On to `COc1cc(C(=O)O)ccc1-c1cccc(-c2c(-c3ccccc3C#N)c3cc(F)ccc3n2S(=O)(=O)c2ccc(C(F)F)cc2)c1` [11/29], for which the EC50 (in assay [1]; at LXRβ) was below 100 nM throughout.
With `N#Cc1cc(C(=O)O)ccc1-c1cccc(-c2c(-c3ccccc3C#N)c3cc(F)ccc3n2S(=O)(=O)c2ccc(C(F)F)cc2)c1` [11/30], the EC50 (in assay [1]; on LXRβ) was below 100 nM in each case.
Regarding `N#Cc1ccccc1-c1c(-c2cccc(-c3ccc(C(=O)O)cc3F)c2)n(S(=O)(=O)c2ccc(C(F)F)cc2)c2ccc(F)cc12` [11/31], the EC50 (in assay [1]; at LXRβ) was below 100 nM each time.
Regarding `N#Cc1ccccc1-c1c(-c2cccc(-c3ccc(C(=O)O)c(O)c3Cl)c2)n(S(=O)(=O)c2ccc(C(F)F)cc2)c2ccc(F)cc12` [11/32], the EC50 (in assay [1]; on LXRβ) was below 100 nM throughout.
Take `N#Cc1cccc(F)c1-c1c(-c2cccc(-c3ccc(C(=O)O)cc3Cl)c2)n(S(=O)(=O)c2ccc(C(F)F)cc2)c2ccc(F)cc12` [11/34]: the EC50 (in assay [1]; at LXRβ) was below 100 nM each time.
With `Cc1cccc(C(F)F)c1-c1c(-c2cccc(-c3ccc(C(=O)O)cc3Cl)c2)n(S(=O)(=O)c2ccc(C(F)F)cc2)c2ccc(F)cc12` [11/38], the EC50 (in assay [1]; at LXRβ) was below 100 nM each time.
For `COc1cccnc1-c1c(-c2cccc(-c3ccc(C(=O)O)cc3Cl)c2)n(S(=O)(=O)c2ccc(C(F)F)cc2)c2ccc(F)cc12` [11/40], the EC50 in assay [1] was 100 to 1000 nM; on LXRβ, below 100 nM.
The matching figures for `O=C(O)c1ccc(-c2cccc(-c3c(-c4ncccc4OC(F)F)c4cc(F)ccc4n3S(=O)(=O)c3ccc(C(F)F)cc3)c2)c(Cl)c1` [11/41]: below 100 nM and below 100 nM.
In the case of `N#CC1=C(c2c(-c3cccc(-c4ccc(C(=O)O)cc4Cl)c3)n(S(=O)(=O)c3ccc(C(F)F)cc3)c3ccc(F)cc23)CCCC1` [11/42], the figures for the EC50 (in assay [1]; on LXRβ) were above 10000 nM and 100 to 1000 nM, respectively.
Regarding `O=C(O)c1ccc(-c2cccc(-c3c(-c4cccc5nncn45)c4cc(F)ccc4n3S(=O)(=O)c3ccc(C(F)F)cc3)c2)c(Cl)c1` [11/43], the EC50 (in assay [1]; on LXRβ) was 100 to 1000 nM throughout.
Consider `O=C(O)c1ccc(-c2cccc(-c3c(-c4cccc5c4OCO5)c4cc(F)ccc4n3S(=O)(=O)c3ccc(C(F)F)cc3)c2)c(Cl)c1` [11/44], for which the EC50 (in assay [1]; at LXRβ) was below 100 nM throughout.
As for `COc1cc(-c2c(-c3cccc(-c4ccc(C(=O)O)cc4Cl)c3)n(S(=O)(=O)c3ccc(C(F)F)cc3)c3ccc(F)cc23)c2c(C#N)cnn2c1` [11/46], the EC50 (in assay [1]; at LXRβ) was below 100 nM in each case.
Take `Cn1cccc(-c2c(-c3cccc(-c4ccc(C(=O)O)cc4Cl)c3)n(S(=O)(=O)c3ccc(C(F)F)cc3)c3ccc(F)cc23)c1=O` [11/47]: the EC50 (in assay [1]; at LXRβ) was 100 to 1000 nM throughout.
Take `N#Cc1cccc(C#N)c1-c1c(-c2cccc(-c3ccc(C(=O)O)c(F)c3F)c2)n(S(=O)(=O)c2ccc(C(F)F)cc2)c2ccc(F)cc12` [11/52]: the EC50 (in assay [1]; at LXRβ) was below 100 nM throughout.
Regarding `N#Cc1cccc(C#N)c1-c1c(-c2cccc(-c3c(F)c(F)c(C(=O)O)c(F)c3F)c2)n(S(=O)(=O)c2ccc(C(F)F)cc2)c2ccc(F)cc12` [11/54], the EC50 (in assay [1]; on LXRβ) was below 100 nM each time.
On to `N#Cc1cccc(C#N)c1-c1c(-c2cccc(-c3ccc(C(=O)O)cc3Cl)c2)n(S(=O)(=O)c2ccc(Cl)cc2)c2ccc(F)cc12` [11/55], for which the EC50 (in assay [1]; on LXRβ) was below 100 nM each time.
In the case of `N#Cc1cccc(C#N)c1-c1c(-c2cccc(-c3ccc(C(=O)O)cc3Cl)c2)n(S(=O)(=O)c2ccc(C(F)F)cc2)c2ccccc12` [11/56], the EC50 (in assay [1]; on LXRβ) was below 100 nM in each case.
Take `N#Cc1sccc1-c1c(-c2cccc(-c3ccc(C(=O)O)cc3Cl)c2)n(S(=O)(=O)c2ccc(C(F)F)nc2)c2ccc(F)cc12` [11/57]: the EC50 (in assay [1]; at LXRβ) was below 100 nM throughout.
Consider `N#Cc1cccc(C#N)c1-c1c(-c2cccc(C34CCC(C(=O)O)(CC3)CC4)c2)n(S(=O)(=O)c2ccc(C(F)F)cc2)c2ccc(F)cc12` [11/58], for which the EC50 (in assay [1]; on LXRβ) was below 100 nM throughout.
For `CC(O)(C(=O)O)c1ccc(-c2cccc(-c3c(-c4c(C#N)cccc4C#N)c4cc(F)ccc4n3S(=O)(=O)c3ccc(C(F)F)cc3)c2)cc1` (stereo not drawn) [11/59], the EC50 (in assay [1]; at LXRβ) was below 100 nM throughout.
For `N#Cc1cccc(C#N)c1-c1c(-c2cccc([C@H]3CC[C@@H](C(=O)O)CC3)c2)n(S(=O)(=O)c2ccc(C(F)F)cc2)c2ccc(F)cc12` [11/61], the EC50 in assay [1] was 100 to 1000 nM; on LXRβ, below 100 nM.
For `N#Cc1cccc(C#N)c1-c1c(-c2cccc(-c3ccc(C(=O)O)cc3F)c2)n(S(=O)(=O)C2CCC(C(F)(F)F)CC2)c2ccc(F)cc12` (stereo not drawn) [11/64], the EC50 was 100 to 1000 nM in assay [1] and below 100 nM at LXRβ.
With `N#Cc1cccc(C#N)c1-c1c(-c2cccc(-c3ccc(C(=O)O)cc3Cl)c2)n(S(=O)(=O)C2CC3CCC2C3)c2ccc(F)cc12` (stereo not drawn) [11/66], the EC50 in assay [1] was 100 to 1000 nM; at LXRβ, below 100 nM.
Regarding `N#Cc1cncc(C#N)c1-c1c(-c2cccc(-c3ccc(C(=O)O)cc3Cl)c2)n(S(=O)(=O)c2ccc(C(F)F)cc2)c2ccc(F)cc12` [11/67], the results for the EC50 (in assay [1]; on LXRβ) were 100 to 1000 nM and below 100 nM, respectively.
For `Cn1ccc(-c2c(-c3cccc(-c4ccc(C(=O)O)cc4Cl)c3)n(S(=O)(=O)c3ccc(C(F)F)cc3)c3ccc(F)cc23)c1C#N` [11/68], the EC50 (in assay [1]; on LXRβ) was below 100 nM in each case.
